# Assay results reported in patent publication US6194465A, “Benzamide therapeutics for the treatment of inflammatory bowel disease” (priority 1999, dated 2001).
# Like-named read-outs stand apart in the source and are kept apart here.
# Legend:
# [1] = Absolute oral bioavailability (AUC oral vs IV, 20 mg/kg); assay type: in vivo, rats; conditions: rat, blood
# Experimental: Blood concentrations were determined at 0, 0.083, 0.15, 0.5, 1, 2, 4, 8, and 24 hours post-IV dose and 0, 0.5, 1, 2, 4 and 8 hours post-oral dose. Four animals were dosed orally and four animals were dosed intravenously.
# The blood samples were analyzed by HPLC. Detection was by UV at 262 nm. Responses were converted to concentrations by comparison to responses from calibration standards injected onto the column. The resulting concentrations were used to calculate the AUC.
# DSS-induced colitis = test: Dose-response in the Mouse Dextran Sulfate (DSS) model; assay type: in vivo
# Experimental: To determine the dose-response relationship of Compound A in the DSS Mouse Model, the following procedure was used.
# Experimental conditions and statistical analyses were the same as the Mouse Dextran Sulfate IBD Model, except four groups of mice (n=8-10/group) were used. Animals were dosed orally with either Compound A (3, 10 or 30 mg/kg) or vehicle alone. In addition, the following procedure was introduced to evaluate the histology in the animals:
# 5-6 slices/segment with 15-18 total pieces/colon
# Score for extent of damage: 0=1-25% involvement, 1=26-50% involvement,
# 0=intact crypt, 1=loss of 1/3 crypt, 2=loss of 2/3 crypt, 3=loss of entire crypt with surface epithelium intact, 4=loss of entire crypt and erosion of surface epithelium
# 0=normal, 1=focal inflammatory cell infiltrate including PMNs, 2=inflammatory cell infiltration, gland dropout and crypt abscess, 3=mucosal ulceration
# Single, evaluator (qualified pathologist) blinded to the treatment conditions.
compound,measurement,setting,value
"CC(=O)Nc1ccc(C(=O)NC(C)(C)C)cc1 [Compound A, N-tert-butyl-4-acetamidobenzamide]",bioavailability,"[1]; in rats, as restated, read-out: bioavailability",50%
same,bioavailability,"[1]; oral 20 mg/kg in 1% methyl cellulose vs IV 20 mg/kg in 75% PEG, read-out: absolute bioavailability",52%
same,"protective effect, significance by day",DSS-induced colitis; oral,"statistically significant on days 3, 4, 5 and 7"
same,"DAI score, protective effect (in words)","DSS-induced colitis; oral, 3, 10 or 30 mg/kg",marked dose-dependent protective effect
same,"DAI score, significance by dose","DSS-induced colitis; oral, 3, 10 or 30 mg/kg",statistically significant at 30 mg/kg
same,"MPO values (in words), dose-response study","DSS-induced colitis; oral, 3, 10 or 30 mg/kg",the protection was not statistically significant
same,"wet weight (in words), dose-response study","DSS-induced colitis; oral, 3, 10 or 30 mg/kg",the protection was not statistically significant
